Test results: PMC12040169 (PLOS Biology, 2025)

Experiment: in vitro
Conditions: human, hela cells, % viability

| Compound | viability at 28.5 h, 10 µM [%] |
| --- | --- |
| Cc1ccc(OCC(=O)NC(=S)Nc2cc(C(=O)O)ccc2C)cc1C [CBK264955] | 92.8 |
| COc1cc(C2NC(=O)NC(O)(C(F)(F)F)C2C(=O)c2ccccc2)ccc1OCc1ccccc1 (stereo not drawn) [CBK264957] | 114 |
| NS(=O)(=O)c1ccc(NS(=O)(=O)c2ccc(NC(=O)C3CC3)cc2)cc1 [CBK264958] | 103 |
| O=C(O)c1ccccc1NC(=S)NC(=O)c1ccccc1[N+](=O)[O-] [CBK264963] | 96.2 |
| Sc1nnc(COc2ccc(-c3ccccc3)cc2)n1-c1ccccc1 [CBK264964] | 105 |
| CC1CCN(S(=O)(=O)c2ccc(NC(=O)COc3ccc4ccccc4c3)cc2)CC1 [CBK264969] | 96.7 |
| O=C(CC(C(=O)O)P(=O)(c1ccccc1)c1ccccc1)c1ccccc1 (stereo not drawn) [CBK264971] | 114 |
| CN(C)c1nc(Oc2ccc(OCCOc3ccccc3)nn2)nc(N(C)C)n1 [CBK264976] | 104 |
| CN(C)S(=O)(=O)c1ccc(C(=O)Nc2ccc(-c3ccccc3)cc2)cc1 [CBK264978] | 96.2 |
| CC1(C(=O)O)NC(c2ccccc2O)C2C(=O)N(c3ccccc3[N+](=O)[O-])C(=O)C21 (stereo not drawn) [CBK264979] | 107 |
| Cc1ccc(S(=O)(=O)Nc2nc(C)c(NC(=O)Nc3ccc(Cl)cc3Cl)s2)cc1 [CBK264982] | 85.8 |
| Cn1c(SCc2c(Cl)cccc2[N+](=O)[O-])nnc1-c1ccc(NC(=O)c2ccccc2Cl)cc1 [CBK264983] | 81.1 |
| COc1ccc(CCNC(=O)C2CCN(S(=O)(=O)c3ccccc3)CC2)cc1 [CBK264985] | 95 |
| CCOC(=O)Cc1cc(O)nc(NC(=N)Nc2ccc(C)cc2C)n1 [CBK264986] | 104 |
| O=c1c2ccccc2nc(CSc2[nH]cnc3ncnc2-3)n1-c1cccc(C(F)(F)F)c1 [CBK264991] | 105 |
| CC1CCN(S(=O)(=O)c2ccc(NC(=O)COc3ccc([N+](=O)[O-])cc3)cc2)CC1 [CBK264994] | 95.4 |
| Cc1ccc(S(=O)(=O)Nc2ccccn2)c(C)c1C [CBK264995] | 90 |
| Cc1ccc(C(=O)O)cc1NC(=S)NC(=O)c1ccc(-c2ccccc2)cc1 [CBK264997] | 92.7 |
| CCN(Cc1ccccc1)c1ccc(C2NC(=O)NC(O)(C(F)(F)F)C2C(=O)c2cccnc2)cc1 (stereo not drawn) [CBK264999] | 91.7 |
| Cc1ccc(OCC(=O)NC(=S)Nc2cc(C(=O)O)ccc2C)cc1 [CBK265000] | 96.8 |
| Cn1c(SCc2ccc([N+](=O)[O-])cc2)nnc1-c1ccc(NC(=O)c2ccccc2Cl)cc1 [CBK265001] | 111 |

| Compound | viability at 28.5 h, 10 µM [%] |
| --- | --- |
| COc1ccc(-c2c(-c3ccc(OCc4cnn(-c5ccccc5)c4)c(C)c3O)n[nH]c2C)cc1 [CBK265006] | 92.5 |
| COC(=O)c1sc(NC(=O)c2cccnc2)c(C#N)c1C [CBK265007] | 89.4 |
| CC(C)(C)OC(=O)NCCC(=O)Oc1ccc2c3c(c(=O)oc2c1)CCCC3 [CBK265008] | 89.3 |
| O=[N+]([O-])c1cc(-c2nc(-c3cccs3)c(-c3cccs3)[nH]2)ccc1Br [CBK265009] | 102 |
| CN(C)S(=O)(=O)Nc1ccc(Cc2ccncc2)cc1 [CBK265011] | 115 |
| CCOC(=O)c1c(NC(=O)C2CCCN2S(=O)(=O)c2ccccc2)sc2c1CCCC2 (stereo not drawn) [CBK265012] | 92 |
| O=C(O)c1cccc(NC(=S)NC(=O)c2ccc(-c3ccc(Br)cc3)o2)c1 [CBK265014] | 95.6 |
| Nc1nc(-n2cnnc2)nn1-c1ccccc1 [CBK265015] | 97.2 |
| Cc1ccc(NC(=O)CN2C(=O)N/C(=C\c3cc(Br)cc(Cl)c3O)C2=O)cc1 [CBK265018] | 98.7 |
| Cc1n[nH]c(O)c1C(c1ccc(OC(=O)c2ccccc2)cc1)c1c(C)n[nH]c1O [CBK265019] | 109 |
| Nc1cc(=O)[nH]c(SCC(=O)Nc2ccc(S(N)(=O)=O)cc2)n1 [CBK265021] | 91.2 |
| Cc1ccc(C(=O)CC(C(=O)O)P(=O)(c2ccccc2)c2ccccc2)cc1 (stereo not drawn) [CBK265022] | 90.1 |
| O=C(/C=C/c1ccccc1)N/C(=C/c1ccccc1)C(=O)Nc1ccc2ccccc2c1 [CBK265023] | 89.6 |
| CC(C)c1ccc(/C=C/C(=O)NC(=S)Nc2cccc(C(=O)O)c2)cc1 [CBK265024] | 94.3 |
| CC(=O)CSc1nnc(COc2ccc(C3CCCCC3)cc2)n1-c1ccccc1 [CBK265026] | 116 |
| O=C(/C=C/c1ccc([N+](=O)[O-])cc1)c1ccc(O)c(O)c1 [CBK265028] | 105 |
| COCCN(CCOC)Cc1c(C)nc2c(C)c(C)ccc2c1O [CBK265031] | 102 |
| Cc1oc(C(C)(C)C)cc1C(=O)NCCNc1c(Cl)cccc1[N+](=O)[O-] [CBK265032] | 119 |
| Cn1c(SCc2cccc3ccccc23)nnc1-c1ccc(NC(=O)/C=C/c2ccccc2)cc1 [CBK265034] | 114 |
| CC(C)CC12CN3CCN(CC(C3)/C1=N\N=C1/C3CN4CCN(C3)CC1(CC(C)C)C4)C2 [CBK265036] | 99.1 |
| Cn1c(Cc2ccccc2)nnc1Sc1ccc(C(=O)O)cc1[N+](=O)[O-] [CBK265038] | 99.6 |

| Compound | viability at 28.5 h, 10 µM [%] |
| --- | --- |
| COc1ccccc1CN(CN1C(=O)c2ccccc2C1=O)CN1C(=O)c2ccccc2C1=O [CBK265039] | 94.9 |
| CC(C)Nc1nc(NC(C)C)nc(Oc2ccc(C=O)cc2)n1 [CBK265043] | 111 |
| O=C(NC(=S)Nc1ccccc1C(=O)O)c1ccc(Cl)cc1 [CBK265044] | 96.2 |
| O=C(CN1CCOCC1)Nc1ccc(NC(=O)CN2CCOCC2)cc1 [CBK265045] | 95.9 |
| CCN(CC)CCNc1cc(C)nc2c1C(=O)C(=O)C=C2N1CCCCC1 [CBK265049] | 89.5 |
| CC1CCc2c(sc3ncnc(SC(C)C(=O)OC4CCCCC4)c23)C1 (stereo not drawn) [CBK265050] | 104 |
| O=C(O)c1cccc(NC(=S)NC(=O)C(c2ccccc2)c2ccccc2)c1 [CBK265053] | 107 |
| NCCNCCCCOc1ccc(Cl)c(Cl)c1 [CBK265059] | 109 |
| O=C(CN1CCCC1)Nc1sc2c(c1C(=O)Nc1ccc(Br)cc1)CCC2 [CBK265060] | 94.8 |
| COc1ccc(NC(=O)c2c(NC(=O)CN3CCCC(C)C3)sc3c2CCC3)cc1 (stereo not drawn) [CBK265061] | 93.3 |
| C=CCOc1ccc(-c2nn(-c3ccccc3)cc2/C=C2/SC(=S)N(CC(=O)O)C2=O)c(C)c1 [CBK265062] | 95.8 |
| COc1cccc(C(=O)NC(=S)Nc2ccc(C(=O)O)c(Cl)c2)c1 [CBK265065] | 103 |
| Cc1cc(Cl)c(OCCNCCO)c(Br)c1 [CBK265066G] | 122 |
| Cc1cccc(OCC(=O)NC(=S)Nc2cccc(C(=O)O)c2C)c1 [CBK265067] | 96.3 |
| Cc1ccc(C(=O)NC(=S)Nc2ccc(C(=O)O)c(Cl)c2)cc1Cl [CBK265068] | 95 |
| COc1cc(/C=C2\N=C(c3cc(Cl)ccc3OC)OC2=O)ccc1OC(=O)c1ccccc1 [CBK265069] | 104 |
| Cc1c(NC(=S)NC(=O)COc2ccc(Cl)cc2)cccc1C(=O)O [CBK265070] | 103 |
| Cc1cc(Br)c2c(c1)C(O)(N1CCCCC1C)C(=O)N2 (stereo not drawn) [CBK265071] | 97.9 |
| O=C(CN1CCOCC1)Nc1sc2c(c1C(=O)Nc1ccc(Br)cc1)CCC2 [CBK265073] | 111 |
| COc1ccc(C(=O)O)cc1NC(=S)NC(=O)c1ccc(-c2cc(Cl)ccc2Cl)o1 [CBK265074] | 104 |
| CN1CCN(CCCOc2ccc(OCc3ccccc3)cc2)CC1 [CBK265077] | 98.2 |

| Compound | viability at 28.5 h, 10 µM [%] |
| --- | --- |
| Cc1cc(Cl)c(OCCNCCN)c(Br)c1 [CBK265079] | 91.5 |
| CCCSc1nnc(-c2ccccc2NC(=O)CC)c(O)n1 [CBK265081] | 92.8 |
| Cc1cc(OCC(=O)NCCCN2CCOCC2)cc(C)c1Br [CBK265082] | 99.9 |
| Cc1cccc(C(C)(C)C)c1OCCn1ccnc1 [CBK265084] | 109 |
| COc1cccc(OC)c1OCCN1CCNCC1 [CBK265089G] | 90.7 |
| Nn1c(SCC(=O)Nc2ccc3c(c2)oc2ccccc23)nnc1-c1ccc(Cl)cc1Cl [CBK265090] | 91.7 |
| Cc1cccc(C(C)(C)C)c1OCCCCNCCN [CBK265092G] | 110 |
| Cc1cc(OCC(=O)Nc2ccccc2CO)cc(C)c1Br [CBK265094] | 88.2 |
| Cc1ccc(OCCCCNCCN)c(Br)c1 [CBK265099G] | 85.1 |
| Cc1ccccc1N1C(=O)/C(=C/c2cn(Cc3ccccc3[N+](=O)[O-])c3ccccc23)SC1=S [CBK265101] | 101 |
| N/C(=N\OC(=O)c1cc(-c2ccccc2)nc2ccccc12)c1cccnc1 [CBK265106] | 101 |
| COc1ccc(-c2nn(-c3ccccc3)cc2/C=C2/SC(=S)N(Cc3ccccc3)C2=O)c(C)c1 [CBK265107] | 93.7 |
| COc1cc(NC(=O)CN2C(=O)c3ccc([N+](=O)[O-])cc3C2=O)c(C(=O)O)cc1OC [CBK265109] | 97.7 |
| CCCC(=O)Nc1ccc(C(=O)Nc2ccccc2C(=O)O)cc1 [CBK265111] | 121 |
| O=C(CN1C(=O)C2C3C=CC(C3)C2C1=O)OCC(=O)c1ccccc1 (stereo not drawn) [CBK265112] | 100 |
| O=C(CCN1C(=O)C2C3CCC(C3)C2C1=O)OCC(=O)c1ccc(-c2ccccc2)cc1 (stereo not drawn) [CBK265113] | 95.1 |
| CCOC(=O)C(C)N1C(=O)S/C(=C/c2ccc(Oc3ccc([N+](=O)[O-])cn3)cc2)C1=O (stereo not drawn) [CBK265114] | 93.9 |
| O=C(CN1C(=O)C2C3C=CC(C3)C2C1=O)NCc1ccco1 (stereo not drawn) [CBK265116] | 96.4 |
| COc1ccc(NC(=O)Nc2ccc3nc(C)c(C)nc3c2)cc1 [CBK265120] | 97.4 |
| O=[N+]([O-])c1cc(CN2CCCCC2)c2cccnc2c1O [CBK265121] | 86.3 |
| CCn1cc(C(=O)O)c(=O)c2cc(F)c(N3CCN(S(=O)(=O)c4ccc(C)cc4)CC3)cc21 [CBK265122] | 95.1 |
